Experimental data taken from patent US20260022098A1, “BULLEYACONITINE A DERIVATIVE WITH ANALGESIC ACTIVITY, AND PREPARATION METHOD AND APPLICATION THEREOF” (priority 2023, published 2026).

Tests used:
Kunming mice [1] = assay: Analgesic activity by acetic acid-induced writhing method (writhing inhibition rate, ED50); assay type: in vivo; settings: Mus musculus, sc, read-out: Analgesia rate (%) ± SEM
Experimental: (§1) The experimental animals were Kunming mice (male:female=1:1), weighed 22+2 g, which were provided by Chengdu dossy experimental animals Co., ltd., China. The mice were kept in the animal room of the School of Life Science and Engineering, Southwest Jiaotong University, where the animal room was set at a temperature of 23±2° C., a humidity of […] and a photoperiod of 16:8 h (L:D). Before the experiment, the mice were freely fed for 2-3 days with water and feed to adapt to the new environment. Then, the mice were treated by water and food fasting for 12 h. 10 animals were allocated to each group to ensure that there are at least 6 sets of valid data in each group. The animal experiments were carried out in strict accordance with the national regulations on the management of experimental animals.
(§2) The compounds prepared in the examples provided herein (test sample set) and bulleyaconitine A (positive control set) were all dissolved with 0.1 mol/L HCl according to a molar ratio of 1:1, and then diluted with physiological saline to a concentration to be determined. Blank control was physiological saline containing 0.1 mol/L HCl. The animals in the control groups were subjected to the same treatment as those in experimental groups except that samples to be test were replaced with physiological saline.
(1) Determination of Analgesic Activity Through an Acetic Acid-Induced Writhing Method
10 mice were randomly selected, male:female=1:1, were placed in independent cages. Each mouse was injected subcutaneously with the sample solution mentioned above at a dose of 0.1 mL/10 g body weight. After 15 min, a 0.7% acetic acid solution was intraperitoneally injected. A number of writhing reactions in each mouse within 15 minutes was recorded. The group that the mice were injected with physiological saline subcutaneously was the blank group; the group that the mice were injected with the sample to be tested was the experimental group; and the group that the mice were injected with bulleyaconitine A was the positive group. The analgesic activity was represented by a percentage of the reduced number of writhing compared to the blank group (writhing inhibition rate), which were specifically as follows: writhing inhibition rate (analgesic activity)=(average number of writhing times in the blank group-average number of writhing times in the experimental group)/average number of writhing times in the blank group×100%.
Median Effective Dose (ED50) Determination
The sample to be tested was dissolved with 0.1 mol/L HCl according to the amount of the substance ratio of 1:1, and diluted with physiological saline according to the proportional series to obtain at least 5 groups with different dose concentrations. The writhing inhibition rate of each dose group was tested according to the acetic acid-induced writhing method mentioned above. The obtained dose-writhing inhibition data was entered into the statistical product and service solutions (SPSS) software (version 17.2), and the ED50 of the sample to be tested was calculated through the Probit regression method.

Kunming mice [2] = assay: Acute toxicity / median lethal dose (LD50) determination, subcutaneous injection; assay type: in vivo; design: key to Acute toxicity: if death occurred, (+) represented as positive; if no death occurred, (−) represented as negative; settings: mice administered 20 mg/kg subcutaneously, presence of death within 24 h
Experimental: as §1, §2
(2) Median Lethal Dose (LD50) Determination
The sample to be tested was dissolved with 0.1 mol/L HCl according to the amount of the substance ratio of 1:1, and diluted with physiological saline according to the required concentration. 10 mice in each group were randomly selected, half of which were male and half of which were female, and were placed in independent cages. Each mouse was injected subcutaneously with different sample solutions to be tested according to a dose of 0.1 mL/10 g body weight. In the preliminary toxicity experiment, the measured concentration was 20 mg/kg, and then based on the survival rate of the experimental animals in the preliminary experiment, the sample to be tested was set to at least 5 groups with different concentration dose according to the proportional series. The survival rate of mice within 24 h was recorded. The obtained dose-survival rate data was input into the SPSS software (version 17.2), and the LD50 of the sample was calculated according to the Probit regression method.

SMILES | inhibition in vivo at 0.05 mg/kg (Kunming mice [1]) [%] | Acute toxicity (Kunming mice [2])
CCO[C@]12C[C@H](OC)[C@@]3(OC(=O)c4ccc(Br)cc4)CC(C1[C@H]3OC(=O)c1ccc(OC)cc1)[C@]13C4[C@@H](OC)C2[C@H]1N(CC)C[C@]4(COC)CC[C@@H]3OC (some centres unmarked) [Compound 91] | 31.4 ± 1.5 | −
CCCC(=O)O[C@@H]1C2C3C[C@]1(OC(=O)CCC)[C@@H](OC)C[C@]2(OCC)C1[C@H](OC)C2[C@@]4(COC)CC[C@H](OC)[C@@]32[C@@H]1N(CC)C4 (some centres unmarked) [Compound 77] | 34.2 ± 1.8 | −
CCN1C[C@]2(COC)CC[C@H](OC)[C@@]34C5C[C@]6(OC(=O)C7CCCCC7)[C@@H](OC)C[C@@](OC(C)=O)(C5[C@H]6OC(=O)c5ccc(OC)cc5)C([C@H](OC)C23)[C@@H]14 (some centres unmarked) [Compound 11] | 35.1 ± 1.2 | −
CCO[C@]12C[C@H](OC)[C@@]3(OC(=O)c4ccccc4Cl)CC(C1[C@H]3OC(=O)c1ccccc1Cl)[C@]13C4[C@@H](OC)C2[C@H]1N(CC)C[C@]4(COC)CC[C@@H]3OC (some centres unmarked) [Compound 68] | 24.6 ± 1.7 | −
CCN1C[C@]2(COC)CC[C@H](OC)[C@@]34C5C[C@]6(OC(=O)C7CCOCC7)[C@@H](OC)C[C@@](OC(C)=O)(C5[C@H]6OC(=O)c5ccc(OC)cc5)C([C@H](OC)C23)[C@@H]14 (some centres unmarked) [Compound 25] | 23 ± 0.8 | −
CCO[C@]12C[C@H](OC)[C@@]3(OC(=O)c4ccc(Cl)s4)CC(C1[C@H]3OC(=O)c1ccc(OC)cc1)[C@]13C4[C@@H](OC)C2[C@H]1N(CC)C[C@]4(COC)CC[C@@H]3OC (some centres unmarked) [Compound 20] | 0 | −
CCO[C@]12C[C@H](OC)[C@@]3(OC(=O)c4ccc(C(F)(F)F)cc4)CC(C1[C@H]3OC(=O)c1ccc(OC)cc1)[C@]13C4[C@@H](OC)C2[C@H]1N(CC)C[C@]4(COC)CC[C@@H]3OC (some centres unmarked) [Compound 47] | 33.8 ± 2.2 | −
CCO[C@]12C[C@H](OC)[C@@]3(OC(=O)c4ccccc4OC)CC(C1[C@H]3OC(=O)c1ccccc1OC)[C@]13C4[C@@H](OC)C2[C@H]1N(CC)C[C@]4(COC)CC[C@@H]3OC (some centres unmarked) [Compound 66] | 22.9 ± 2.4 | −
CCO[C@]12C[C@H](OC)[C@@]3(OC(=O)c4ccc(C(F)(F)F)cc4)CC(C1[C@H]3OC(=O)c1ccc(C(F)(F)F)cc1)[C@]13C4[C@@H](OC)C2[C@H]1N(CC)C[C@]4(COC)CC[C@@H]3OC (some centres unmarked) [Compound 46] | 16.7 ± 2.6 | −
CCN1C[C@]2(COC)CC[C@H](OC)[C@@]34C5C[C@]6(OC(=O)C7CC7)[C@@H](OC)C[C@@](OC(C)=O)(C5[C@H]6OC(=O)c5ccc(OC)cc5)C([C@H](OC)C23)[C@@H]14 (some centres unmarked) [Compound 10] | 15.2 ± 1.9 | −
CCO[C@]12C[C@H](OC)[C@@]3(OC(=O)c4ccc(C)cc4)CC(C1[C@H]3OC(=O)c1ccc(OC)cc1)[C@]13C4[C@@H](OC)C2[C@H]1N(CC)C[C@]4(COC)CC[C@@H]3OC (some centres unmarked) [Compound 57] | 5.39 ± 2 | −
CCO[C@]12C[C@H](OC)[C@@]3(OC(=O)c4ccc(Br)cc4)CC(C1[C@H]3OC(=O)c1ccc(Br)cc1)[C@]13C4[C@@H](OC)C2[C@H]1N(CC)C[C@]4(COC)CC[C@@H]3OC (some centres unmarked) [Compound 64] | 22.4 ± 1.4 | −
C/C=C/C(=O)O[C@]12CC3C([C@H]1OC(=O)c1ccc(OC)cc1)[C@](OCC)(C[C@@H]2OC)C1[C@H](OC)C2[C@@]4(COC)CC[C@H](OC)[C@@]32[C@@H]1N(CC)C4 (some centres unmarked) [Compound 86] | 22.8 ± 1.8 | −
CCO[C@]12C[C@H](OC)[C@@]3(OC(=O)C(C)Cl)CC(C1[C@H]3OC(=O)C(C)Cl)[C@]13C4[C@@H](OC)C2[C@H]1N(CC)C[C@]4(COC)CC[C@@H]3OC (some centres unmarked) [Compound 7] | 22.8 ± 3.3 | −
CCN1C[C@]2(COC)CC[C@H](OC)[C@@]34C5C[C@]6(OC(=O)C(C)C)[C@@H](OC)C[C@@](OC(C)=O)(C5[C@H]6OC(=O)c5ccc(OC)cc5)C([C@H](OC)C23)[C@@H]14 (some centres unmarked) [Compound 82] | 33.3 ± 1.5 | −
CCN1C[C@]2(COC)CC[C@H](OC)[C@@]34C5C[C@]6(OC(=O)c7ccc(Cl)cc7)[C@@H](OC)C[C@@](OC(C)=O)(C5[C@H]6OC(=O)c5ccc(OC)cc5)C([C@H](OC)C23)[C@@H]14 (some centres unmarked) [Compound 84] | 27 ± 1.4 | −
CCN1C[C@]2(COC)CC[C@H](OC)[C@@]34C5C[C@]6(OC(=O)c7ccc(Cl)s7)[C@@H](OC)C[C@@](OC(C)=O)(C5[C@H]6OC(=O)c5ccc(OC)cc5)C([C@H](OC)C23)[C@@H]14 (some centres unmarked) [Compound 22] | 6.27 ± 2.3 | −
CCN1C[C@]2(COC)CC[C@H](OC)[C@@]34C5C[C@]6(OC(=O)c7ccco7)[C@@H](OC)C[C@@](OC)(C5[C@H]6OC(=O)c5ccco5)C([C@H](OC)C23)[C@@H]14 (some centres unmarked) [Compound 32] | 37.3 ± 1.4 | −
CCN1C[C@]2(COC)CC[C@H](OC)[C@@]34C5C[C@]6(OC(=O)c7cccnc7)[C@@H](OC)C[C@@](OC)(C5[C@H]6OC(=O)c5cccnc5)C([C@H](OC)C23)[C@@H]14 (some centres unmarked) [Compound 30] | 31.1 ± 2.4 | −
CCN1C[C@]2(COC)CC[C@H](OC)[C@@]34C5C[C@]6(OC(=O)c7ccc(Br)cc7)[C@@H](OC)C[C@@](OC(C)=O)(C5[C@H]6OC(=O)c5ccc(OC)cc5)C([C@H](OC)C23)[C@@H]14 (some centres unmarked) [Compound 92] | 4.12 ± 1.7 | −
CCO[C@]12C[C@H](OC)[C@@]3(OC(=O)c4cccs4)CC(C1[C@H]3OC(=O)c1ccc(OC)cc1)[C@]13C4[C@@H](OC)C2[C@H]1N(CC)C[C@]4(COC)CC[C@@H]3OC (some centres unmarked) [Compound 19] | 7.13 ± 2.8 | −
CCN1C[C@]2(COC)CC[C@H](OC)[C@@]34C5C[C@]6(OC(=O)C7CCCCC7)[C@@H](OC)C[C@@](OC)(C5[C@H]6OC(=O)C5CCCCC5)C([C@H](OC)C23)[C@@H]14 (some centres unmarked) [Compound 34] | 37 ± 1.4 | −
CCN1C[C@]2(COC)CC[C@H](OC)[C@@]34C5C[C@]6(OC(=O)c7ccc(C(F)(F)F)cc7)[C@@H](OC)C[C@@](OC(C)=O)(C5[C@H]6OC(=O)c5ccc(OC)cc5)C([C@H](OC)C23)[C@@H]14 (some centres unmarked) [Compound 48] | 17.5 ± 3 | −
CCN1C[C@]2(COC)CC[C@H](OC)[C@@]34C5C[C@]6(OC(=O)c7ccccc7)[C@@H](OC)C[C@@](OC)(C5[C@H]6OC(=O)c5ccccc5)C([C@H](OC)C23)[C@@H]14 (some centres unmarked) [Compound 55] | 11.7 ± 1.6 | −
CCO[C@]12C[C@H](OC)[C@@]3(OC(=O)C4CC4)CC(C1[C@H]3OC(=O)c1ccc(OC)cc1)[C@]13C4[C@@H](OC)C2[C@H]1N(CC)C[C@]4(COC)CC[C@@H]3OC (some centres unmarked) [Compound 16] | 36.7 ± 1.2 | −
CCO[C@]12C[C@H](OC)[C@@]3(OC(=O)C(C)C)CC(C1[C@H]3OC(=O)c1ccc(OC)cc1)[C@]13C4[C@@H](OC)C2[C@H]1N(CC)C[C@]4(COC)CC[C@@H]3OC (some centres unmarked) [Compound 81] | 28.8 ± 1.2 | −
CCN1C[C@]2(COC)CC[C@H](OC)[C@@]34C5C[C@]6(OC(C)=O)[C@@H](OC)C[C@@](OC)(C5[C@H]6OC(C)=O)C([C@H](OC)C23)[C@@H]14 (some centres unmarked) [Compound 44] | 5.82 ± 3.4 | −
C/C=C/C(=O)O[C@]12CC3C([C@H]1OC(=O)c1ccc(OC)cc1)[C@](OC(C)=O)(C[C@@H]2OC)C1[C@H](OC)C2[C@@]4(COC)CC[C@H](OC)[C@@]32[C@@H]1N(CC)C4 (some centres unmarked) [Compound 87] | 17.3 ± 3.1 | −
